Measurements published in paper PMC4193996 (Journal of Experimental & Clinical Cancer Research : CR, 2014).

Assays:
[1] = system: h-Tel quadruplex DNA, 5'-biotin-d[AG3(T2AG3)3] (DNA, G4) AGGGTTAGGGTTAGGGTTAGGG; experiment: SPR
[2] = system: hairpin duplex, 5'-biotin-CGA3T3C(CT)2GA3T3CG (DNA, hairpin) CGAAATTTCCTCTGAAATTTCG; experiment: SPR
[3] = system: human colon cancer cell line HT-29; experiment: MTT proliferation assay, HT-29; type: cell-based; conditions: 96 hours
Method: (§1) Normal WI-38 diploid human lung fibroblasts and the human colorectal adenocarcinoma HT29 cells were obtained from American Type Culture Collection (Manassas, VA, USA). BJ fibroblasts expressing hTERT and SV40 early region (BJ-EHLT) were obtained as previously reported. Cells were grown in Dulbecco Modified Eagle Medium (D-MEM, Invitrogen Carlsbad, CA, USA) supplemented with 10% fetal calf serum, 2 mM L-glutamin and antibiotics.
(§2) MTT (3-(4,5-Dimethylthiazol-2-yl)-2,5-diphenyltetrazolium Bromide) assay was performed in treated and untreated cells for 96 hours. Cells were incubated with MTT solution (Sigma-Aldrich), and the purple formazan crystals were dissolved in isopropanol. Optical densities (OD) at 540 nm was determined on microplate reader.
(§3) Firstly, we investigated if they were able to efficiently promote growth inhibition of tumor cells without affecting the survival of normal cells in vitro. In Table 1 we report for each compound the concentration causing 50% of growth inhibition (GI50) calculated by performing a proliferation assay in the human colon cancer cell line HT-29 or in the human ‘normal’ lung WI-38 cells. […] On the basis of results described so far, we decided to exclude from the further analysis ligand 10 for its high value of hERG inhibition (95%) (Table 1).

[4] = biological target: hERG (Homo sapiens, UniProt Q12809); experiment: hERG tail current inhibition in a patch clamp assay; type: cell-based; conditions: read-out: hERG % inh @10 μM
Chain of hERG (Q12809 whole entry): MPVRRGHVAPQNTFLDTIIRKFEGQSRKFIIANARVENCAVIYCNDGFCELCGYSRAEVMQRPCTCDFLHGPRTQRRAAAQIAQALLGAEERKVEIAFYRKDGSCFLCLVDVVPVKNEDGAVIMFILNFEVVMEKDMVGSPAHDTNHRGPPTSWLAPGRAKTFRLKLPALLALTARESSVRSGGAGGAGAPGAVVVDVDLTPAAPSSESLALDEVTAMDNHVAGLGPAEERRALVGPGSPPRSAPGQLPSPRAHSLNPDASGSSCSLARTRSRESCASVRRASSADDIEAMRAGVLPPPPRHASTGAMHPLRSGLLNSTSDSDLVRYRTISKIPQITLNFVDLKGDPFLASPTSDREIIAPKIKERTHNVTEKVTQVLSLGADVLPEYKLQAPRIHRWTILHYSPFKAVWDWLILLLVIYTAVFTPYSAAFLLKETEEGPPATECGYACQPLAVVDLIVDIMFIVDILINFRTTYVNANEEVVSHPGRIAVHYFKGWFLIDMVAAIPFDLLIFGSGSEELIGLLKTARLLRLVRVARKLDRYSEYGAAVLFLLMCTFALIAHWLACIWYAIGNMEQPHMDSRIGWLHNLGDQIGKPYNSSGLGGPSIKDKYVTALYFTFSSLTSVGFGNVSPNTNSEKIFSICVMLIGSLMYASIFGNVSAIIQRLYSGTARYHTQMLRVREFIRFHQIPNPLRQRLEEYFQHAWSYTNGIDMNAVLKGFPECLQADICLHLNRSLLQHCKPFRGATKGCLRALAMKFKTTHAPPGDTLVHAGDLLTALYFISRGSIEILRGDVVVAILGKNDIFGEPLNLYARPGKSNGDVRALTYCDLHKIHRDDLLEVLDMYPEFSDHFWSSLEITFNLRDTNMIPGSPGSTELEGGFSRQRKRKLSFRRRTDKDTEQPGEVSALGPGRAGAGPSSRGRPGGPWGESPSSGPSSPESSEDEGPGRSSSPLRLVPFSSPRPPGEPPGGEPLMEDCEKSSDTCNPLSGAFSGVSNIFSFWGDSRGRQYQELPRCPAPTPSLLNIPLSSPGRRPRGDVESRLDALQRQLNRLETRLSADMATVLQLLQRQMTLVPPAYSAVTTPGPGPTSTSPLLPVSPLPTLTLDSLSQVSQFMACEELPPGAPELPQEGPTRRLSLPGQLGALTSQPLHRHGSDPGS
Method: (§4) hEGR study and the M2 and the β2 receptor inhibition assay were performed as previously reported.
(§5) The new G-quadruplex ligands were designed in an attempt to obtain molecules with improved toxicological and on-target profiles, but maintaining the same favorable chemical and pharmacological features of the lead compound 1. With the aim of selecting the best variants, a step by step comparative analysis of their off- and on-target properties was performed. Initially the new molecules were tested for their ability to interact with and inhibit the human recombinant β2 adrenergic and M2 muscarinic receptors, and to reduce the hERG tail current in a patch clamp assay. […] Therefore, we might expect that the new ligands would impair cardiac functionality to a lesser extent than the lead molecule does.

[5] = system: alternating hairpin duplex sequence 5'-biotin-CGA3T3C(CT)2GA3T3CG; experiment: SPR binding to duplex DNA
Method: Oligonucleotides 5’-biotin-d [AG3 (T2AG3)3] quadruplex and 5’-biotin-CGA3T3C(CT)2GA3T3CG were purchased from Midland Certified Reagent Company (Midland, TX). Purification of DNA, preparation of solutions, collection of data, and analysis of results were conducted according to methods adopted in an earlier study.
This technique takes advantage of the refractive index change elicits by the binding of the drug with the h-Tel quadruplex DNA sequence 5’-d[AGGG(TTAGGG)3]-3’ or an alternating hairpin duplex sequence immobilized on a sensor chip surface.

[6] = biological target: human recombinant β2 adrenergic receptor (Homo sapiens, UniProt P07550); experiment: β2 adrenergic receptor inhibition assay; type: binding; conditions: read-out: β2 adrenergic % inh @1 μM
Chain of human recombinant β2 adrenergic receptor (P07550 whole entry): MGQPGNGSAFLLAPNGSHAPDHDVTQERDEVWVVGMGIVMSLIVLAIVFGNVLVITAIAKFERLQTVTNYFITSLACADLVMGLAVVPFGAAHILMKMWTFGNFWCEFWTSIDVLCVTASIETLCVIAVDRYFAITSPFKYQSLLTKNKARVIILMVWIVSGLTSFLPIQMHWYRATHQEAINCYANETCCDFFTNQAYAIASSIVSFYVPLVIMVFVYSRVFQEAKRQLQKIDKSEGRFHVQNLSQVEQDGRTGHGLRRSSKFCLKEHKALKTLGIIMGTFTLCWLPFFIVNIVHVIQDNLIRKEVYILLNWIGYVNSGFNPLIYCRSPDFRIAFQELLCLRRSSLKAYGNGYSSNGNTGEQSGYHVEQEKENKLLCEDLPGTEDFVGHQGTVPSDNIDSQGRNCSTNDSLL
Method: as §4, §5

[7] = system: BJ-EHLT fibroblasts; experiment: γ-H2AX/TRF1 colocalization (TIFs, telomere uncapping); type: cell-based, human
Method: Cells were fixed in 2% formaldehyde and permeabilized in 0.25% Triton X100 in PBS for 5 min at room temperature. For immunolabeling, cells were incubated with primary antibody, then washed in PBS and incubated with the secondary antibodies. The following primary antibodies were used: pAb and mAb anti-TRF1(Abcam Ltd.; Cambridge UK); mAb (Upstate, Lake Placid, NY) and pAb anti-γH2AX (Abcam); mAb anti-PCNA (Sigma Chemicals, Milano, Italy). The following secondary antibody were used: TRITC conjugated Goat anti Rabbit, FITC conjugated Goat anti Mouse (Jackson ImmunoResearch Europe Ltd., Suffolk, UK). Fluorescence signals were recorded by using a Leica DMIRE2 microscope equipped with a Leica DFC 350FX camera and elaborated by a Leica FW4000 deconvolution software (Leica, Solms, Germany). This system permits to focus single planes inside the cell generating 3D highresolution images. For quantitative analysis of γH2AX positivity, 200 cells on triplicate slices were scored. For TIFs analysis, in each nucleus a single plane was analyzed and at least 50 nuclei per sample were scored.
Unfortunately, we were not able to test compounds 4, 5 and the 0,5 μM dose of 3 as they were fluorescent in both red and green channels. […] To ascertain whether γ-H2AX was phosphorylated in response to dysfunctional telomeres, double immunofluorescence experiments were processed by confocal microscopy. We observed that some of the γ-H2AX foci induced by G4-ligands colocalized with TRF1, a good marker for interphase telomeres, forming the so-called telomere dysfunction-induced foci (TIFs) (Figure 2B).
Figure 2 DNA damage activation at telomeres. BJ-EHLT fibroblasts were treated for 24 hrs with compound 1 and the indicated ligands at the doses 0.1 (light-grey bars) and 0.5 μM (dark-grey bars). Cells were processed for immunofluorescence (IF) using antibodies against γ-H2AX and TRF1 to mark DNA damage and telomeres respectively. Percentages of γ-H2AX- (A) and TIF-positive (B) treated and untreated cells are reported in the histograms. (C) Mean number of TIFs in the indicated samples. Cells with four or more γ-H2AX/TRF1 foci were scored as TIF positive. Error bars indicate the standard deviation. (D) Representative images of IF of untreated and 1, 3, 6 and 8-treated BJ-EHLT cells. Enlarged views of TIFs are reported on the right of the merged images. The images were acquired with a Leica Deconvolution microscope (magnification 100x). (E) Cells treated as in (A) were processed for IF of γ-H2AX and PCNA to mark replicating cells. Percentage of γ-H2AX+/PCNA- or γ-H2AX+/PCNA + nuclei in the indicated samples are reported in the histograms.

[8] = system: human 'normal' lung WI-38 cells; experiment: MTT proliferation assay, WI-38; type: cell-based
Method: as §1, §2, §3

K [1]: 1.42e+07 M⁻¹
K [2]: 900000 M⁻¹
GI50 [3]: 0.75 µM
Duplex DNA affinity K [5]: 0,9 x10^6 M^−1
inhibition at 1 µM [6]: 2%
Compound: CC(=O)NCC#Cc1ccc2c3cccc4c3c([n+](C)c2c1)-c1ccccc1N4C [Compound 8]
inhibition at 10 µM [4]: 40%
mean TIFs per nucleus ([7]; 24 hrs): about seven
percentage of cells with more than four γ-H2AX/TRF1 colocalizations (TIF-positive) ([7]; 24 hrs, 0,5 μM): ~40%
Ratio PMX WI38/HT29 ([8]; GI50 WI-38 / GI50 HT-29): 33,5
GI50 ([8]; Homo sapiens, WI-38, MTT, 96 hours): 25.1 µM
